These results are taken from patent US11007178B2, “Methods and uses of Nampt activators for treatment of diabetes, cardiovascular diseases, and symptoms thereof” (University of South Florida, priority 2016, dated 2021).

One data set deals with Wt mouse heart. In words: Ex vivo lactate perfusion of heart, ventricular arrhythmia. The conditions noted are these: 2 out of 5 mice, control 0%. An excerpt: Cardiac elevation of NADH through ex vivo lactate perfusion of Wt mouse heart increases the incidence of ventricular arrhythmia by 40% (2 out of 5 mice) (FIGS. 5A and 5B).
A further data set relates to H9C2 cardiomyoblasts. In words: NAD levels in H9C2 cardiomyoblasts. The data set is classed as cell-based. The conditions noted are these: H9C2, 10 μM, vs vehicle (1% DMSO) or FK866 (10 nM). An excerpt: Nampt, a rate-limiting enzyme, controls the level of NAD+ and protects the heart by stimulating SIRT1. […] The data presented in this Example coupled with previous evidence of the ability of P7C3 to bind and activate Nampt unequivocally indicate that the rescue of arrythmogenic and myopathy changes noted in P7C3 treated db/db mice are in due to activation of Nampt activation, NAD elevation, and stimulation of Nampt-SIRT1 axis.

Data set [1] relates to pancreatic islet β-cells of diabetic mice. In words: Immunohistochemical staining for insulin in pancreatic beta-islets. The conditions noted are these: vs vehicle. It is filed as in vivo.
Data set [2] has the same test system. In words: Pancreatic islets and beta cells, Gomori staining. The data set is classed as in vivo. The conditions noted are these: 10 mg/Kg daily, 4 weeks, vs vehicle. The protocol: Additionally diabetic mice were treated with P7C3 for 4 weeks with daily dose of 10 mg/Kg with P7C3 or vehicle. Thereafter, the pancreas was collected at necropsy and cryosectioned, the cross sections were stained for visualizing the damage of β-cells in diabetes and rescue by P7C3. […] P<0.01. ** indicates […] between Vehicle and P7C3 groups and *** indicates P<0.001 Vehicle and P7C3 groups as determined by a one-way ANOVA followed by Tukey test.

The test system of data set [3] is db/db mice. In words: Blood sugar level in diabetic mouse model over 4 weeks. The conditions noted are these: 10 mg/kg i.p. daily. It is filed as in vivo. The procedure:
(§1) To determine the effect of the Nampt activator on blood sugar control and cardiac electrical activity in diabetics, we examined the effects of P7C3,in a diabetic mouse model (db/db mice). Briefly, wild-type or db/db mice were treated with a Nampt activator (P7C3) or control. The Nampt activator or control was administered daily via intraperitoneal (i.p.) injection at about 10 mg/kg.

Data set [4] has as its system db/db mice. In words: Serum insulin levels by ELISA. It is filed as in vivo. The conditions noted are these: diabetic mice, about 10 mg/kg i.p., 4 weeks, vs vehicle. The procedure: A Nampt activator, P7C3, was administered and various effects were evaluated. […] Briefly, the dose of P7C3 was about 10 mg/kg and administered i.p. to diabetic mice and the effect on serum insulin, insulin tolerance, blood glucose, and pancreatic beta cell number and insulin granulation in the islets of a diabetic model pancreas. The serum from P7C3 or vehicle treated diabetic mice and measured the insulin levels by ELISA assay.

Data set [5] concerns db/db mice. Kind of data set: Intra-peritoneal glucose tolerance test (IPGTT). It is filed as in vivo. The settings on record: 10 mg/kg, 4 weeks, vs vehicle. The procedure: The diabetic model was treated with a vehicle or P7C3 for 4 weeks. Then a glucose tolerance test was conducted.
as §1
An insulin tolerance test was also performed after 4 weeks of Nampt activator treatment as previously described.

The subject of data set [6] is db/db mice. Kind of data set: Echocardiography, cardiomyopathy and cardiac performance. The data set is classed as in vivo. The text has this:
A similar increase (p<0.05) in pulmonary VTI was also noted in the 20 week db/db mice when compared with WT controls. […] A similar increase in M-mode short axis measurements in 20 week db/db was also noted in left ventricular internal dimension (LVID) at both systole and diastole. […] This increase in LVID is indicative of increased heart size when compared with Wt controls.

A further data set concerns wild-type C57 hearts. In words: Langendorff myocardial ischemia-reperfusion injury, wild-type hearts. Also on record: species or system mouse. The conditions noted are these: 10 μM, 45 min ischemia, 60 min reperfusion, vs vehicle. The procedure:
Following a 45 minutes of ischemia in the wild type mouse hearts we utilized P7C3 and allowed reperfusion for first 30 minutes of reperfusion period during a 60 minutes reperfusion phase. […] Red portion of the stain in FIGS. 12A and 12C can indicate viable tissue, where as white or pale colored areas are infarcted areas. Qualification for the infract size is depicted in the accompanying bar graphs in each panel. ***p<0.0001, **p<0.001, vehicle vs. P7C3 in each group.

Another data set relates to diabetic hearts (db/db). Kind of data set: Langendorff myocardial ischemia-reperfusion injury, diabetic hearts. Further details: species or system mice. The conditions noted are these: 4 week treated diabetic hearts, 45 min ischemia, 60 min reperfusion, vs vehicle.
In data set [7] the test system is db/db mice. Kind of data set: NADH/NAD ratio in diabetic model. It is filed as in vivo. The conditions noted are these: 4 weeks treatment, vs vehicle.
The subject of another data set is diabetic mice. Kind of data set: Insulin tolerance test (ITT). The conditions noted are these: about 10 mg/Kg daily, 4 weeks, insulin 5 U/Kg i.v. It is filed as in vivo. The procedure: Diabetic mice were utilized and treated with P7C3 for 4 weeks with a daily dose of about 10 mg/Kg P7C3 or vehicle. Thereafter, ITT (insulin tolerance test) was performed by injecting insulin 5 U/Kg body weight i.v. Blood glucose levels were monitored as shown in FIGS. 9A-9B.

Data set [8] has as its system db/db mice. Kind of data set: ECG, cardiac electrical abnormalities. The settings on record: 20 week old, vs vehicle treated db/db. The data set is classed as in vivo. The procedure:
as §1

Setting [9] is: diabetic mice, 4 week treatment.

lactate: in the data set with Wt mouse heart, the “incidence of ventricular arrhythmia” value was determined as 40%.

With `NC(=O)c1ccc[n+]([C@@H]2O[C@H](COP(=O)([O-])O)[C@@H](O)[C@H]2O)c1` [NMN, nicotinamide mononucleotide, reference compound], the NAD levels result in the data set with H9C2 cardiomyoblasts is recorded as “significantly (P<0.01) increases”.

Take `OC(CNc1ccccc1)Cn1c2ccc(Br)cc2c2cc(Br)ccc21` (stereo not shown) [P7C3]: the “insulin positive beta-cells per islet area” value in data set [1] is given as “increased insulin production”. Besides, in [2], the “beta cells per section” value was “significant improvement”, the “number of beta cells per islet” value was “improved” and the “number of pancreatic islets in a unit area of the pancreas” value is given as “improved”. In the data set on db/db mice [3], the “net reduction in blood sugar levels” value came out at 173.2 mg/dL. The compound also had a blood sugar level in the data set on db/db mice [3] (at 4 weeks, vehicle db/db 467.5±34.2, wild type 209.8±6.1) of 214.5 ± 16.9 mg/dL. Further, the serum insulin levels entry with db/db mice [4] is “increased”. In addition, in the data set with db/db mice [5], the “glucose tolerance after 2 hour glucose load” value is reported as “increased glucose tolerance” and the “insulin release after glucose load” value is recorded as “significantly (P<0.001) increased”. For the same compound, the cardiomyopathy entry with db/db mice [6] (4 week treatment) is on record as “partial rescue”. For the same compound, in the data set with db/db mice [6] (P7C3 treated diabetic mice), the “IVRT (isovolumic relaxation time)” value is reported as “improvement in cardiac performance” and the “MPI (myocardial performance index)” value is “improvement in cardiac performance”. Moreover, the LV mass entry in the data set on db/db mice [6] (db/db mice) is “smaller increase”. In the data set with db/db mice [6] (db/db mice, 4-week treatment), the “aortic VTI” value is recorded as “much less of an increase” and the “pulmonary VTI” value is recorded as “much less of an increase”. The “left ventricular internal dimension (LVID)” value in the data set on db/db mice [6] (db/db mice, particularly at the diastole) is “much less increase”. For the same compound, in the data set on db/db mice [6] (setting [9]), the “% ejection fraction” value is recorded as “significantly (p<0.05) decreased” and the “% fractional shortening” value is reported as “significantly (p<0.05) decreased”. The NAD levels entry with H9C2 cardiomyoblasts is listed as “significantly (P<0.01) increases”. Further, in the data set with wild-type C57 hearts, the “protection from myocardial ischemia-reperfusion injury (infarct size)” value is recorded as “cardioprotective effect”. Moreover, the “protection from myocardial ischemia-reperfusion injury (infarct size)” value in the data set with diabetic hearts (db/db) is “cardioprotective effect”. For the same compound, in the data set on db/db mice [7], the NADH/NAD ratio entry is “significantly attenuated”. In addition, the “insulin sensitivity (insulin tolerance test, blood glucose)” value in the data set on diabetic mice was “improved insulin sensitivity”. Also, in the data set with db/db mice [8], the QRS interval entry is reported as “significantly reduced (p<0.001) back to Wt levels”, the QT interval entry is given as “significantly reduced (p<0.001) back to Wt levels” and the QTc interval entry is “significantly reduced (p<0.001) back to Wt levels”.
